The source of these data is patent US20220388957A1, “COMPOUNDS AND COMPOSITIONS FOR TREATING CONDITIONS ASSOCIATED WITH STING ACTIVITY” (IFM Due, Inc., priority 2019, published 2022).

The target of this assay is T1, Human STING (Homo sapiens, UniProt Q86WV6, G230A/H232R/R293Q/R71H).
T1 construct: host or cells: THP1-Dual KO-IFNAR2 cells (human monocytic reporter line)
Kind of assay: STING reporter assay (luciferase) in THP1-Dual KO-IFNAR2 cells stimulated with 2′3′cGAMP. The format is cell-based. Conditions: 2′3′cGAMP 15 μM, 24 h. How it is done: STING pathway activation by the compounds described herein was measured using THP1-Dual™ cells (KO-IFNAR2).
THP1-Dual™ KO-IFNAR2 Cells (obtained from invivogen) were maintained in RPMI, 10% FCS, 5 ml P/S, 2 mM L-glut, 10 mM Hepes, and 1 mM sodium pyruvate. Compounds were spotted in empty 384 well tissue culture plates (Greiner 781182) by Echo for a final concentration of 0.0017-100 μM. Cells were plated into the TC plates at […], 2×10E6 cells/mL. For activation with STING ligand, 2′3′cGAMP (MW 718.38, obtained from Invivogen), was prepared in Optimem media.
The following solutions were prepared for each 1×384 plate: • o Solution A: 2 mL Optimem with one of the following stimuli: • 60 uL of 10 mM 2′3′cGAMP->150 μM stock • Solution B: 2 mL Optimem with 60 μL Lipofectamine 2000->Incubate 5 min at RT
2 mL of solution A and 2 ml Solution B was mixed and incubated for 20 min at room temperature (RT). 20 μL of transfection solution (A+B) was added on top of the plated cells, with a final 2′3′cGAMP concentration of 15 μM. The plates were then centrifuged immediately at 340 g for 1 minute, after which they were incubated at 37° C., 5% CO2, >98% humidity for 24 h. Luciferase reporter activity was then measured. EC50 values were calculated by using standard methods known in the art.
Luciferase reporter assay: 10 μL of supernatant from the assay was transferred to white 384-plate with flat bottom and squared wells. One pouch of QUANTI-Luc™ Plus was dissolved in 25 mL of water. 100 μL of QLC Stabilizer per 25 mL of QUANTI-Luc™ Plus solution was added. 50 μL of QUANTI-Luc™ Plus/QLC solution per well was then added. Luminescence was measured on a Platereader (e.g., Spectramax I3X (Molecular Devices GF3637001)).
Luciferase reporter activity was then measured. EC50 values were calculated by using standard methods known in the art.
A general note: A reporter such as luciferase makes a cellular process visible.

T1 sequence (Q86WV6 whole entry R71H/G230A/H232R/R293Q): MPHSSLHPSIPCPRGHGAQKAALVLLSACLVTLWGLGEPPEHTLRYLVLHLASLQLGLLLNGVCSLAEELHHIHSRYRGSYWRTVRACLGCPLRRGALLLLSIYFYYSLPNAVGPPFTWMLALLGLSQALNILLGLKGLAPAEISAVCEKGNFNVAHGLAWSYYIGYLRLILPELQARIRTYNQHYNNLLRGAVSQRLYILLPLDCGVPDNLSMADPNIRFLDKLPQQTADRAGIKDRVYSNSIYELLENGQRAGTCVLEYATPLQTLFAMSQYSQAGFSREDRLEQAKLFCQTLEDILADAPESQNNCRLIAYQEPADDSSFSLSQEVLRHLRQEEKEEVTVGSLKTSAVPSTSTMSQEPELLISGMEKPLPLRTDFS

Turning to `CC1CNCCC1NS(=O)(=O)c1c[nH]c2nccc(Cl)c12` (stereo not shown) [Compound 112], where the note is “numeric bound”, the concentration giving a half-maximal response (EC50) was above 100 µM. For `O=S(=O)(Cc1cccc(C(F)(F)F)c1)Nc1c[nH]c2cc(F)c(F)cc12` [Compound 131, N-(5,6-difluoro-1H-indol-3-yl)-1-(3-(trifluoromethyl)phenyl) methanesulfonamide], where the note is “class symbols”, the EC50 is 5 to 100 µM. Still for that read-out and setting: to `O=S(=O)(Nc1c[nH]c2cc(F)c(F)cc12)c1ccc2c(c1)CCC2` [Compound 135, N-(5,6-difluoro-1H-indol-3-yl)-2,3-dihydro-1H-indene-5-sulfonamide] belongs 5 to 100 µM.

Where the note is “class symbols”, `CC(C)c1ccc(S(=O)(=O)Nc2c[nH]c3cc(F)c(F)cc23)cc1` [Compound 141, N-(5,6-difluoro-1H-indol-3-yl)-4-isopropylbenzene-sulfonamide] yielded an EC50 of 5 to 100 µM.

In the case of `O=S(=O)(Nc1c[nH]nc1-c1ccccc1)c1ccc(C(F)(F)F)cc1` [Compound 106], the EC50 (class symbols) lay within 5 to 100 µM. As for `O=S(=O)(Nc1c[nH]c2cc(F)c(F)cc12)c1ccc2c(c1)CCCC2` [Compound 139, N-(5,6-difluoro-1H-indol-3-yl)-5,6,7,8-tetrahydro-naphthalene-2-sulfonamide], for the setting “class symbols”, the EC50 was 5 to 100 µM. Turning to `CCCCCCCCS(=O)(=O)Nc1c[nH]c2cc(F)c(F)cc12` [Compound 128, N-(5,6-difluoro-1H-indol-3-yl)octane-1-sulfonamide], the EC50 (class symbols) lay within 1 to 5 µM.

As a reminder, the EC50 is the concentration giving half of the maximal effect. Higher therefore signals a less potent agent.
